# Like-named read-outs stand apart in the source and are kept apart here.
# Tests used:
# Assay type in all cases: cell-based
# [1] = system: CNS SF-539; experiment: COMPARE screening (NCI human cancer cell line screen), cytotoxicity GI50
# Protocol: (§1) Selected compounds were tested for antiproliferative activity in the National Cancer Institute's developmental therapeutics assay 60 cell line screen (NCI60). The cells were incubated with the tested compounds at 100, 10, 1, 0.1, and 0.01 μM concentrations for 48 h before treatment with sulforhodamine B dye. Optical densities were recorded, and their ratios relative to that of the control were plotted as percentage growth against the log 10 of the tested compound concentrations.
# [2] = system: colon HCT-116; experiment: as above
# Protocol: as §1
# [3] = system: lung HOP-62; experiment: as above
# Protocol: as §1
# [4] = system: melanoma UACC-62; experiment: as above
# Protocol: as §1
# [5] = system: ovarian OVCAR-3; experiment: as above
# Protocol: as §1
# [6] = system: prostate DU-145; experiment: as above
# Protocol: as §1
# [7] = system: renal SN12C; experiment: as above
# Protocol: as §1
# [8] = system: breast MDA-MB-435; experiment: as above
# [9] = system: all human cancer cell lines successfully tested; experiment: NCI screen mean graph midpoint (MGM) for growth inhibition
# Protocol: COMPARE screening. The compounds described herein were examined for antiproliferative activity against the human cancer cell lines in the National Cancer Institute screen (COMPARE screening), in which the activity of each compound was evaluated with approximately 55 different cancer cell lines of diverse tumor origins. […] Therefore, the MGM value represents an overall assessment of toxicity of the compound across numerous cell lines.
# as §1
# The cytotoxicities of the compounds to cultured cancer cells were measured in the National Cancer Institute's 60 cell line assay (a.k.a. NCI-60).
# [10] = Table 1, average GI50 of all cell lines tested (approximately 55), test range 10^−8 to 10^−4 molar
# [11] = all human cancer cell lines successfully tested
# [12] = CNS SF-539, concentration corresponding to 50% growth inhibition, read-out: cytotoxicity (GI50 in μM) CNS SF-539
# [13] = colon HCT-116, concentration corresponding to 50% growth inhibition, read-out: cytotoxicity (GI50 in μM) colon HCT-116
# [14] = lung HOP-62, concentration corresponding to 50% growth inhibition, read-out: cytotoxicity (GI50 in μM) lung HOP-62
# [15] = melanoma UACC-62, concentration corresponding to 50% growth inhibition, read-out: cytotoxicity (GI50 in μM) melanoma UACC-62
# [16] = ovarian OVCAR-3, concentration corresponding to 50% growth inhibition, read-out: cytotoxicity (GI50 in μM) ovarian OVCAR-3
# [17] = prostate DU-145, concentration corresponding to 50% growth inhibition, read-out: cytotoxicity (GI50 in μM) prostate DU-145
# [18] = renal SN12C, concentration corresponding to 50% growth inhibition, read-out: cytotoxicity (GI50 in μM) renal SN12C
# [19] = breast MDA-MB-435, concentration corresponding to 50% growth inhibition, read-out: cytotoxicity (GI50 in μM) breast MDA-MB-435
Compound,GI50 [1] [µM],GI50 [2] [µM],GI50 [3] [µM],GI50 [4] [µM],GI50 [5] [µM],GI50 [6] [µM],GI50 [7] [µM],GI50 [8] [µM],"MGM (mean graph midpoint for growth inhibition) [9, 10] [µM]",also measured
"COc1cc2c3c(n(CCCn4cncn4)c(=O)c2cc1OC)-c1cc2c(cc1C3=O)OCO2.Cl [Compound 5n, 6-{3-[2-(1,2,4)]-Triazolyl-1-propyl}-5,6-dihydro-2,3-dimethoxy-8,9-methylenedioxy-5,11-dioxo-11H-indeno[1,2-c]isoquinoline Hydrochloride]",0.288,1.91,0.079,< 0.01,61.7,0.085,0.085,> 100,–,"MGM (mean GI50 across cell lines) [9, 10]: 3.55 µM"
Cl.NCCCCn1c2c(c3ccccc3c1=O)C(=O)c1ccccc1-2 [Compound 5an],0.1,0.1,0.08,0.05,0.52,0.01,0.04,0.84,0.16 ± 0.01,–
"COc1cc2c3c(n(CCCNc4nccs4)c(=O)c2cc1OC)-c1cc2c(cc1C3=O)OCO2.Cl.Cl [Compound 5o, 6-(3-Thiazolylamino-1-propyl)-5,6-dihydro-2,3-dimethoxy-8,9-methylenedioxy-5,1-dioxo-11H-indeno[1,2-c]isoquinoline Dihydrochloride]",< 0.01,< 0.01,< 0.01,0.014,–,< 0.01,< 0.01,< 0.01,0.112 ± 0.066,"GI50 ([5]; Table 1, concentration corresponding to 50% growth inhibition, read-out: cytotoxicity (GI50) ovarian OVCAR-3): 0.041 µM"
"O=C1c2ccccc2-c2c1c1ccccc1c(=O)n2CCCNCCCn1c2c(c3ccccc3c1=O)C(=O)c1ccccc1-2 [Compound 12c, Bis{(5,6-dihydro-5,11-diketo-11H-indeno[1,2-c]isoquinoline)-6-propyl}amine]",3.63,0.55,0.794,6.61,2.95,1,1.55,8.91,–,"MGM (mean graph midpoint for growth inhibition) [9, 11]: 4.28 ± 1.89 µM"
"COc1cc2c3c(n(CCCNCCCNCCCn4c5c(c6cc(OC)c(OC)cc6c4=O)C(=O)c4ccccc4-5)c(=O)c2cc1OC)-c1ccccc1C3=O.O=C(O)C(F)(F)F.O=C(O)C(F)(F)F [Compound 14l, Bis-1,3-{(5,6-dihydro-5,11-diketo-2,3-dimethoxy-11H-indeno[1,2-c]isoquinoline)-6-propylamino}propane Bis{trifluoroacetate)]",–,–,–,–,–,–,–,–,–,"GI50 [1, 12]: 4.17 µM; GI50 [2, 13]: 0.331 µM; GI50 [3, 14]: 1.51 µM; GI50 [4, 15]: 4.27 µM; GI50 [5, 16]: 9.55 µM; GI50 [6, 17]: 19.5 µM; GI50 [7, 18]: 0.24 µM; GI50 [8, 19]: 3.98 µM; MGM (mean GI50 across cell lines) [9, 11]: 6.03 µM"
"O=C(O)C(F)(F)F.O=C(O)C(F)(F)F.O=C1c2ccccc2-c2c1c1ccc([N+](=O)[O-])cc1c(=O)n2CCCNCCCNCCCn1c2c(c3ccc([N+](=O)[O-])cc3c1=O)C(=O)c1ccccc1-2 [Compound 14n, Bis-1,3-{(5,6-dihydro-5,1-diketo-3-nitro-11H-indeno[1,2-c]isoquinoline)-6-propylamino}propane Bis{trifluoroacetate)]",–,–,–,–,–,–,–,–,–,"GI50 [1, 12]: 1.17 µM; GI50 [2, 13]: 1.45 µM; GI50 [3, 14]: 3.02 µM; GI50 [4, 15]: 1.78 µM; GI50 [5, 16]: 2.29 µM; GI50 [6, 17]: 0.912 µM; GI50 [7, 18]: 1.17 µM; GI50 [8, 19]: 3.89 µM; MGM (mean graph midpoint for growth inhibition) [9, 11]: 1.50 ± 0.24 µM"
"CC(C)(C)OC(=O)NCCCCCCCCCCCn1c2c(c3ccccc3c1=O)C(=O)c1ccccc1-2 [Compound 5aj, 6-(11′-tert-BOC-Anminoundecyl)-5,6-dihydro-5,11-dioxo-11H-indeno[1,2-c]isoquinoline]",29.5,35.5,20.9,24,70.8,91.2,> 100,> 100,42.6 ± 5.35,–
"CC(C)(C)OC(=O)NCCCCCCCCCCn1c2c(c3ccccc3c1=O)C(=O)c1ccccc1-2 [Compound 5ai, 6-(10′-tert-BOC-Aminodecyl)-5,6-dihydro-5,1-dioxo-11H-indeno[1,2-c]isoquinoline]",42.7,60.3,28.8,43.6,> 100,97.7,> 100,> 100,–,"MGM (mean GI50 across cell lines) [9, 10]: 52.5 µM"

# — patent publication US9796753B2, “N-substituted indenoisoquinolines and syntheses thereof” (Purdue Research Foundation, priority 2005, dated 2017)
